# Reference: ChEMBL document CHEMBL1124186, “Synthesis and evaluation of tylosin-related macrolides modified at the aldehyde function: a new series of orally effective antibiotics” (1988)
# Legend:
# Bacteroides fragilis [1] = test: In vitro antimicrobial activity against anaerobic bacteria bacteroides fragilis 111; type: functional
# Bacteroides fragilis [2] = test: In vitro antimicrobial activity against anaerobic bacteria bacteroides fragilis 1877; type: functional
# Bacteroides fragilis [3] = test: In vitro antimicrobial activity against anaerobic bacteria bacteroides fragilis 1936B,; type: functional
# Eikenella corrodens = test: In vitro antimicrobial activity against anaerobic bacteria bacteroides corrodens 1874; type: functional
# Phocaeicola vulgatus = test: In vitro antimicrobial activity against anaerobic bacteria bacteroides vulgatus 1211; type: functional
# [4] = test system: Prevotella melaninogenica; test: In vitro antimicrobial activity against anaerobic bacteria bacteroides melaninogenicus 1856,; type: functional
# [5] = test system: Bacteroides thetaiotaomicron; test: In vitro antimicrobial activity against anaerobic bacteria bacteroides thetaiotaomicron 1438; type: functional
# Clostridioides difficile = test: In vitro antimicrobial activity against anaerobic bacteria Clostridium difficile 2994; type: functional
# Clostridium perfringens = test: In vitro antimicrobial activity against anaerobic bacteria clostridium perfringens 81,; type: functional
# Clostridium septicum = test: In vitro antimicrobial activity against anaerobic bacteria clostridium septicum 1128; type: functional
# Chlamydia trachomatis = test: In vitro antimicrobial activity against chlamydia trachomatis.; type: functional
# Fusobacterium = test: In vitro antimicrobial activity against anaerobic bacteria fusobacterium symbiosum 1470; type: functional
# Haemophilus influenzae [6] = test: In vitro antimicrobial activity against aerobic bacteria Haemophilus influenzae 76; type: functional
# Haemophilus influenzae [7] = test: In vitro antimicrobial activity against aerobic bacteria Haemophilus influenzae MX366,; type: functional
# Haemophilus influenzae [8] = test: In vitro antimicrobial activity against Haemophilus influenzae.; type: functional
# [9] = test system: Haemophilus parainfluenzae; test: In vitro antimicrobial activity against aerobic bacteria Haemophilus parainfluenzae 9796; type: functional
# [10] = In vitro antimicrobial activity against anaerobic bacteria peptostreptococcus intermedius 1264; type: functional
# [11] = test system: Peptoniphilus asaccharolyticus; test: In vitro antimicrobial activity against anaerobic bacteria peptococcus asaccharolyticus 1302; type: functional
# Anaerococcus prevotii = test: In vitro antimicrobial activity against anaerobic bacteria peptococcus prevoti 1281; type: functional
# Cutibacterium acnes = test: In vitro antimicrobial activity against anaerobic bacteria propionibacterium acnes 79; type: functional
# Streptococcus [12] = test: In vitro antimicrobial activity against aerobic bacteria Streptococcus B 14; type: functional
# Streptococcus [13] = test: In vitro antimicrobial activity against aerobic bacteria Streptococcus D 8043; type: functional
# Streptococcus [14] = test: In vitro antimicrobial activity against aerobic bacteria Streptococcus D 9960; type: functional
# [15] = test system: Staphylococcus epidermidis; test: In vitro antimicrobial activity against aerobic bacteria Streptococcus epi 270; type: functional
# Staphylococcus aureus [16] = test: In vitro antimicrobial activity against Staphylococcus aureus X1; type: functional
# Staphylococcus aureus [17] = test: In vitro antimicrobial activity against aerobic bacteria Staphylococcus aureus 513E; type: functional
# Staphylococcus aureus [18] = test: In vitro antimicrobial activity against aerobic bacteria Staphylococcus aureus V140,; type: functional
# Staphylococcus aureus [19] = test: In vitro antimicrobial activity against aerobic bacteria Staphylococcus aureus V41; type: functional
# Staphylococcus aureus [20] = test: In vitro antimicrobial activity against aerobic bacteria Staphylococcus aureus X400; type: functional
# Streptococcus pneumoniae [21] = test: In vivo effective dose against experimental infections in mice Streptococcus pneumoniae park when administered orally; type: functional; details: po
# Streptococcus pneumoniae [22] = test: In vivo effective dose against experimental infections in mice Streptococcus pneumoniae park when administered sc; type: functional
# Streptococcus pneumoniae [23] = test: In vitro antimicrobial activity against aerobic bacteria Streptococcus pneumoniae B1-438; type: functional, streptococcus pneum
# Streptococcus pyogenes [24] = test: In vivo effective dose against experimental infections in rodent caused by Streptococcus pyogenes C203 when administered sc; type: functional
# Streptococcus pneumoniae [25] = test: In vitro antimicrobial activity against Streptococcus pneumoniae; type: functional
# [26] = test system: Staphylococcus epidermidis; test: In vitro antimicrobial activity against Staphylococcus epidermidis EPI1; type: functional
# [27] = test system: Staphylococcus epidermidis; test: In vitro antimicrobial activity against aerobic bacteria Streptococcus epi 222; type: functional
# Enterococcus faecium = test: In vitro antimicrobial activity against Streptococcus faecium X66; type: functional, streptococcus fae-cium
# Streptococcus pyogenes [28] = test: In vitro antimicrobial activity against Streptococcus pyogenes C203; type: functional
# Streptococcus [29] = test: In vitro antimicrobial activity against aerobic bacteria Streptococcus B 5; type: functional
# Staphylococcus aureus [30] = test: In vitro antimicrobial activity against aerobic bacteria Staphylococcus aureus V135; type: functional
# Haemophilus influenzae [31] = test: In vitro antimicrobial activity against aerobic bacteria Haemophilus influenzae 465; type: functional
# [32] = test system: Prevotella melaninogenica; test: In vitro antimicrobial activity against anaerobic bacteria bacteroides melaninogenicus 2736; type: functional
# [33] = test system: Fusobacterium necrophorum; test: In vitro antimicrobial activity against anaerobic bacteria usobacterium necrophorum 6054A; type: functional
# Collinsella aerofaciens = test: In vitro antimicrobial activity against anaerobic bacteria eubacterium aerofaciens 1235; type: functional
# Streptococcus [34] = test: In vitro antimicrobial activity against aerobic bacteria Streptococcus D 2041; type: functional
# [35] = test system: Peptostreptococcus anaerobius; test: In vitro antimicrobial activity against anaerobic bacteria eubacterium peptostreptococcus anaerobius 1428,; type: functional
# Streptococcus pyogenes [36] = test: In vivo effective dose against experimental infections in rodent caused by Streptococcus pyogenes C203 when administered orally; type: functional; details: po
compound,measurement,setting,value
CC[C@H]1OC(=O)C[C@@H](O)[C@H](C)[C@@H](O[C@@H]2O[C@H](C)[C@@H](O)[C@H](N(C)C)[C@H]2O)[C@@H](CCOc2ccc(-c3ccccc3)cc2)C[C@@H](C)C(=O)/C=C/C(C)=C/[C@@H]1CO[C@@H]1O[C@H](C)[C@@H](O)[C@@H](OC)[C@H]1OC,MIC,Bacteroides fragilis [1],4 µg/mL
same,MIC,Bacteroides fragilis [2],2 µg/mL
same,MIC,Bacteroides fragilis [3],4 µg/mL
same,MIC,Eikenella corrodens,2 µg/mL
same,MIC,Phocaeicola vulgatus,< 0.5 µg/mL
same,MIC,[4],< 0.5 µg/mL
same,MIC,[5],2 µg/mL
same,MIC,Clostridioides difficile,< 0.5 µg/mL
same,MIC,Clostridium perfringens,< 0.5 µg/mL
same,MIC,Clostridium septicum,< 0.5 µg/mL
same,MIC,Chlamydia trachomatis,> 2 µg/mL
same,MIC,Fusobacterium,2 µg/mL
same,MIC,Haemophilus influenzae [6],16 µg/mL
same,MIC,Haemophilus influenzae [7],16 µg/mL
same,MIC,Haemophilus influenzae [8],16 µg/mL
same,MIC,[9],32 µg/mL
same,MIC,[10],< 0.5 µg/mL
same,MIC,[11],< 0.5 µg/mL
same,MIC,Anaerococcus prevotii,1 µg/mL
same,MIC,Cutibacterium acnes,< 0.5 µg/mL
same,MIC,Streptococcus [12],1 µg/mL
same,MIC,Streptococcus [13],0.25 µg/mL
same,MIC,Streptococcus [14],0.5 µg/mL
same,MIC,[15],128 µg/mL
same,MIC,Staphylococcus aureus [16],0.5 µg/mL
same,MIC,Staphylococcus aureus [17],0.25 µg/mL
same,MIC,Staphylococcus aureus [18],0.25 µg/mL
same,MIC,Staphylococcus aureus [19],0.25 µg/mL
same,MIC,Staphylococcus aureus [20],0.25 µg/mL
same,ED50,Streptococcus pneumoniae [21],37 mg/kg
same,ED50,Streptococcus pneumoniae [22],> 20 mg/kg
same,MIC,Streptococcus pneumoniae [23],32 µg/mL
same,ED50,Streptococcus pyogenes [24],> 10 mg/kg
same,MIC,Streptococcus pneumoniae [25],0.25 µg/mL
same,MIC,[26],0.5 µg/mL
same,MIC,[27],0.12 µg/mL
same,MIC,Enterococcus faecium,0.5 µg/mL
same,MIC,Streptococcus pyogenes [28],0.25 µg/mL
same,MIC,Streptococcus [29],2 µg/mL
same,MIC,Staphylococcus aureus [30],0.25 µg/mL
same,MIC,Haemophilus influenzae [31],16 µg/mL
same,MIC,[32],< 0.5 µg/mL
same,MIC,[33],4 µg/mL
same,MIC,Collinsella aerofaciens,< 0.5 µg/mL
same,MIC,Streptococcus [34],0.5 µg/mL
same,MIC,[35],< 0.5 µg/mL
same,ED50,Streptococcus pyogenes [36],25 mg/kg
